From US11026943B2, “Aminoquinoline derivatives and uses thereof” (UNIVERSITY OF DELHI, priority 2012, dated 2021)
pIC50: −log10 of the molar value. Like-named read-outs stand apart in the source and are kept apart here. Values belong to the compound of their own block, whether it stands above or below them.

How the values were obtained:
LLC-PK-1 cells = experiment: In vitro cytotoxicity to mammalian cells, LLC-PK-1; format: cell-based; conditions: Sus scrofa, LLC-PK1
Text: (§1) Med. Chem. 2005, 13, 4458; Khan, I. A. Lipids 2004, 37, 169].

[1] = test system: CQ-resistant (W2 clone) strain of P. falciparum; experiment: In vitro antimalarial activity, CQ-resistant strain; format: cell-based, Plasmodium falciparum; conditions: for pIC50: CQ-resistant W2 clone, read-out: P. falciparum (W2 Clone) IC50; for P. falciparum (W2 Clone) S.I.: selectivity index = IC50 cytotoxicity to Vero cells / IC50 antimalarial
Text: as §1

VERO cells = experiment: In vitro cytotoxicity to mammalian cells, VERO; format: cell-based; conditions: Chlorocebus sabaeus, Vero; in vitro cytotoxicity to mammalian cells
Text: as §1

[2] = test system: CQ-sensitive (D6 clone) strain of P. falciparum; experiment: In vitro antimalarial activity, CQ-sensitive strain; format: cell-based, Plasmodium falciparum; conditions: for pIC50: CQ-sensitive D6 clone, read-out: P. falciparum (D6 Clone) IC50; for P. falciparum (D6 Clone) S.I.: selectivity index = IC50 cytotoxicity to Vero cells / IC50 antimalarial
Text: as §1

HepG2 cells = experiment: In vitro cytotoxicity to mammalian cells, HepG2; format: cell-based; conditions: Homo sapiens
Text: as §1

parasitemia = experiment: In-vivo antimalarial activity in mice
[3] = Solubility (solvent listed in compound tables); format: physicochemical; conditions: solvent named, Table 3
[4] = mice, PO, 100 mg/kg × 3 days post-infection

Structure (SMILES): C[C@@H]1CC[C@H]2[C@@H](C)C(=O)O[C@@H]3O[C@@]4(C)CC[C@@H]1[C@]32OO4 [Artemisinine, reference compound]
pIC50 ([1]; Plasmodium falciparum): 7.92 | P. falciparum (W2 Clone) S.I. [1]: 5000 | pIC50 ([2]; Plasmodium falciparum): 7.92 | P. falciparum (D6 Clone) S.I. [2]: 5000

Structure (SMILES): CCN(CC)CCCC(C)Nc1ccnc2cc(Cl)ccc12 (stereo not drawn) [Chloroquine, chloroquine, reference compound]
IC50 ([1]; Plasmodium falciparum, W2, read-out: P. falciparum (W2 Clone) IC50 (μM)): 0.43 µM | P. falciparum (W2 Clone) S.I. [1]: 140 | IC50 ([2]; Plasmodium falciparum, D6, read-out: P. falciparum (D6 Clone) IC50 (μM)): 0.048 µM | P. falciparum (D6 Clone) S.I. [2]: 1250 | parasitemia suppression (parasitemia; day 5, 100 mg/kg for 3 days post infection, standard drug): 100% | Cure (number of mice without parasitemia till day 28 post-infection) (parasitemia; [4]): 0/5 | MST (mean survival time) (parasitemia; [4]): 28 days | % Parasitemia suppression Day 5 (parasitemia; mice, PO, 100 mg/kg × 3 days post-infection, day 5): 100.00% | % Parasitemia suppression Day 7 (parasitemia; mice, PO, 100 mg/kg × 3 days post-infection, day 7): 100.00% | Survival (animals that survived day 28/total animals in group) (parasitemia; mice, PO, 100 mg/kg × 3 days post-infection, day 28): 5/5 | Day of Death (parasitemia; mice, PO, 100 mg/kg × 3 days post-infection, per animal): 28/28/28/28/28

Structure (SMILES): COc1cccc2c1C(=O)c1c(O)c3c(c(O)c1C2=O)C[C@@](O)(C(=O)CO)C[C@@H]3O[C@H]1C[C@H](N)[C@H](O)[C@H](C)O1 [Doxorubicin]
IC50 (LLC-PK-1 cells): 1 µM | IC50 (VERO cells): 8.2 µM | IC50 (HepG2 cells): < 1 µM

Structure (SMILES): Clc1ccc2c(NCCNc3cc(Cl)nc(N4CCOCC4)n3)ccnc2c1 [SM 696]
SOLUBILITY [3]: DMSO

Structure (SMILES): Clc1ccc2c(NCCNc3cc(Cl)nc(N4CCCCC4)n3)ccnc2c1 [SM 697]
SOLUBILITY [3]: DMSO

Structure (SMILES): Clc1ccc2c(NCCNc3nc(Cl)cc(N4CCCCC4)n3)ccnc2c1 [SM 699]
SOLUBILITY [3]: DMSO

Structure (SMILES): Clc1ccc2c(NCCNc3nc(Cl)cc(N4CCOCC4)n3)ccnc2c1 [SM 700]
SOLUBILITY [3]: DMSO

Structure (SMILES): CN1CCN(c2nc(Cl)cc(NCCNc3ccnc4cc(Cl)ccc34)n2)CC1 [SM 701]
SOLUBILITY [3]: DMSO

Structure (SMILES): CCN1CCN(c2nc(Cl)cc(NCCNc3ccnc4cc(Cl)ccc34)n2)CC1 [SM 702]
SOLUBILITY [3]: DMSO

Structure (SMILES): CN1CCN(c2cc(Cl)nc(NCCNc3ccnc4cc(Cl)ccc34)n2)CC1 [SM 703]
SOLUBILITY [3]: DMSO

Structure (SMILES): CCN1CCN(c2cc(Cl)nc(NCCNc3ccnc4cc(Cl)ccc34)n2)CC1 [SM 704]
SOLUBILITY [3]: DMSO

Structure (SMILES): Clc1ccc2c(NCCCNc3cc(Cl)nc(N4CCCCC4)n3)ccnc2c1 [SM 711]
SOLUBILITY [3]: DMSO

Structure (SMILES): Clc1ccc2c(NCCCNc3cc(Cl)nc(N4CCOCC4)n3)ccnc2c1 [SM 712]
SOLUBILITY [3]: DMSO

Structure (SMILES): CN1CCN(c2nc(Cl)cc(NCCCNc3ccnc4cc(Cl)ccc34)n2)CC1 [SM 713]
SOLUBILITY [3]: DMSO

Structure (SMILES): CCN1CCN(c2nc(Cl)cc(NCCCNc3ccnc4cc(Cl)ccc34)n2)CC1 [SM 714]
SOLUBILITY [3]: DMSO

Structure (SMILES): Clc1ccc2c(NCCCNc3nc(Cl)cc(N4CCCCC4)n3)ccnc2c1 [SM 715]
SOLUBILITY [3]: DMSO

Structure (SMILES): Clc1ccc2c(NCCCNc3nc(Cl)cc(N4CCOCC4)n3)ccnc2c1 [SM 716]
SOLUBILITY [3]: DMSO

Structure (SMILES): CN1CCN(c2cc(Cl)nc(NCCCNc3ccnc4cc(Cl)ccc34)n2)CC1 [SM 717]
SOLUBILITY [3]: DMSO

Structure (SMILES): CCN1CCN(c2cc(Cl)nc(NCCCNc3ccnc4cc(Cl)ccc34)n2)CC1 [SM 718]
SOLUBILITY [3]: DMSO

Structure (SMILES): Clc1ccc2c(NCCCNc3ccnc(N4CCCCC4)n3)ccnc2c1 [SM 720]
SOLUBILITY [3]: DMSO

Structure (SMILES): Clc1ccc2c(NCCCNc3ccnc(N4CCOCC4)n3)ccnc2c1 [SM 721]
SOLUBILITY [3]: DMSO

Structure (SMILES): CN1CCN(c2nccc(NCCCNc3ccnc4cc(Cl)ccc34)n2)CC1 [SM 722]
SOLUBILITY [3]: DMSO

Structure (SMILES): CCN1CCN(c2nccc(NCCCNc3ccnc4cc(Cl)ccc34)n2)CC1 [SM 723]
SOLUBILITY [3]: DMSO

Structure (SMILES): Clc1ccc2c(NCCCNc3nccc(N4CCCCC4)n3)ccnc2c1 [SM 724]
SOLUBILITY [3]: DMSO

Structure (SMILES): Clc1ccc2c(NCCCNc3nccc(N4CCOCC4)n3)ccnc2c1 [SM 725]
SOLUBILITY [3]: DMSO

Structure (SMILES): CN1CCN(c2ccnc(NCCCNc3ccnc4cc(Cl)ccc34)n2)CC1 [SM 726]
SOLUBILITY [3]: DMSO

Structure (SMILES): CCN1CCN(c2ccnc(NCCCNc3ccnc4cc(Cl)ccc34)n2)CC1 [SM 727]
SOLUBILITY [3]: DMSO

Structure (SMILES): Clc1ccc2c(NCCNc3ccnc(N4CCCCC4)n3)ccnc2c1 [SM 730]
SOLUBILITY [3]: DMSO

Structure (SMILES): Clc1ccc2c(NCCNc3ccnc(N4CCOCC4)n3)ccnc2c1 [SM 731]
SOLUBILITY [3]: DMSO

Structure (SMILES): Clc1ccc2c(NCCNc3nccc(N4CCCCC4)n3)ccnc2c1 [SM 732]
SOLUBILITY [3]: DMSO

Structure (SMILES): Clc1ccc2c(NCCNc3nccc(N4CCOCC4)n3)ccnc2c1 [SM 733]
SOLUBILITY [3]: DMSO

Structure (SMILES): CN1CCN(c2ccnc(NCCNc3ccnc4cc(Cl)ccc34)n2)CC1 [SM 734]
SOLUBILITY [3]: DMSO

Now from value to compound, other results behind:

pIC50 ([1]; Plasmodium falciparum): 6.47 | pIC50 ([2]; Plasmodium falciparum): 6.68
Structure (SMILES): Cc1cc(NCCNc2ccnc3cc(Cl)ccc23)nc(Cl)n1 [10a]
IC50 (LLC-PK-1 cells): > 60 µM | P. falciparum (W2 Clone) S.I. [1]: (>176) | IC50 (VERO cells): > 60 µM | P. falciparum (D6 Clone) S.I. [2]: (>285) | IC50 (HepG2 cells): > 60 µM

pIC50 ([1]; Plasmodium falciparum): 6.13 | pIC50 ([2]; Plasmodium falciparum): 6.46
Structure (SMILES): Cc1cc(NCCCNc2ccnc3cc(Cl)ccc23)nc(Cl)n1 [10b]
IC50 (LLC-PK-1 cells): > 60 µM | P. falciparum (W2 Clone) S.I. [1]: (>80) | IC50 (VERO cells): > 60 µM | P. falciparum (D6 Clone) S.I. [2]: (>170) | IC50 (HepG2 cells): > 60 µM

pIC50 ([1]; Plasmodium falciparum): 6.16 | pIC50 ([2]; Plasmodium falciparum): 6.82
Structure (SMILES): Cc1cc(NCCCCNc2ccnc3cc(Cl)ccc23)nc(Cl)n1 [10c]
IC50 (LLC-PK-1 cells): > 60 µM | P. falciparum (W2 Clone) S.I. [1]: (>87) | IC50 (VERO cells): > 60 µM | P. falciparum (D6 Clone) S.I. [2]: (>398) | IC50 (HepG2 cells): > 60 µM

pIC50 ([1]; Plasmodium falciparum): 6.26 | pIC50 ([2]; Plasmodium falciparum): 6.33
Structure (SMILES): Cc1cc(NCCCCCCNc2ccnc3cc(Cl)ccc23)nc(Cl)n1 [10d]
IC50 (LLC-PK-1 cells): 14.8 µM | P. falciparum (W2 Clone) S.I. [1]: 27.2 | IC50 (VERO cells): 34.6 µM | P. falciparum (D6 Clone) S.I. [2]: 73.7 | IC50 (HepG2 cells): 9.3 µM

pIC50 ([1]; Plasmodium falciparum): 6.04 | pIC50 ([2]; Plasmodium falciparum): 6.57
Structure (SMILES): Cc1cc(Cl)nc(NCCNc2ccnc3cc(Cl)ccc23)n1 [11a]
IC50 (LLC-PK-1 cells): 41.6 µM | P. falciparum (W2 Clone) S.I. [1]: 47.2 | IC50 (VERO cells): 43 µM | P. falciparum (D6 Clone) S.I. [2]: 159.2 | IC50 (HepG2 cells): 43 µM

pIC50 ([1]; Plasmodium falciparum): 5.91 | pIC50 ([2]; Plasmodium falciparum): 6.57
Structure (SMILES): Cc1cc(Cl)nc(NCCCNc2ccnc3cc(Cl)ccc23)n1 [11b]
IC50 (LLC-PK-1 cells): > 60 µM | P. falciparum (W2 Clone) S.I. [1]: (>48) | IC50 (VERO cells): > 60 µM | P. falciparum (D6 Clone) S.I. [2]: (>222) | IC50 (HepG2 cells): > 60 µM

pIC50 ([1]; Plasmodium falciparum): 6.18 | pIC50 ([2]; Plasmodium falciparum): 6.71
Structure (SMILES): Cc1cc(Cl)nc(NCCCCNc2ccnc3cc(Cl)ccc23)n1 [11c]
IC50 (LLC-PK-1 cells): > 60 µM | P. falciparum (W2 Clone) S.I. [1]: (>90) | IC50 (VERO cells): > 60 µM | P. falciparum (D6 Clone) S.I. [2]: (>306) | IC50 (HepG2 cells): 39.8 µM

pIC50 ([1]; Plasmodium falciparum): 6.25 | pIC50 ([2]; Plasmodium falciparum): 6.78
Structure (SMILES): Cc1cc(Cl)nc(NCCCCCCNc2ccnc3cc(Cl)ccc23)n1 [11d]
IC50 (LLC-PK-1 cells): 23.4 µM | P. falciparum (W2 Clone) S.I. [1]: 97.8 | IC50 (VERO cells): 55.6 µM | P. falciparum (D6 Clone) S.I. [2]: 336.9 | IC50 (HepG2 cells): 8.1 µM

pIC50 ([1]; Plasmodium falciparum): 6.68 | pIC50 ([2]; Plasmodium falciparum): 7.59
Structure (SMILES): Cc1cc(NCCCNc2ccnc3cc(Cl)ccc23)nc(N2CCCCC2)n1 [12b, N-(7-Chloro-quinolin-4-yl)-N′-(6-methyl-2-piperidin-1-yl-pyrimidin-4-yl)-propane-1,3-diamine]
IC50 (LLC-PK-1 cells): > 60 µM | P. falciparum (W2 Clone) S.I. [1]: (>284) | IC50 (VERO cells): > 60 µM | P. falciparum (D6 Clone) S.I. [2]: (>2300) | IC50 (HepG2 cells): > 60 µM

SOLUBILITY [3]: DMSO
Structure (SMILES): Clc1ccc2c(NCCNc3nc(Cl)cc(Cl)n3)ccnc2c1 [SM 695B]

SOLUBILITY [3]: DMSO
Structure (SMILES): Clc1ccc2c(NCCCNc3cc(Cl)nc(Cl)n3)ccnc2c1 [SM 710A]

SOLUBILITY [3]: DMSO
Structure (SMILES): Clc1ccc2c(NCCCNc3nc(Cl)cc(Cl)n3)ccnc2c1 [SM 710B]

SOLUBILITY [3]: DMSO
Structure (SMILES): Clc1ccc2c(NCCCNc3ccnc(Cl)n3)ccnc2c1 [SM 719A]

SOLUBILITY [3]: DMSO
Structure (SMILES): Clc1ccc2c(NCCCNc3nccc(Cl)n3)ccnc2c1 [SM 719B]

SOLUBILITY [3]: DMSO
Structure (SMILES): Clc1ccc2c(NCCNc3ccnc(Cl)n3)ccnc2c1 [SM 728A]

SOLUBILITY [3]: DMSO
Structure (SMILES): Clc1ccc2c(NCCNc3nccc(Cl)n3)ccnc2c1 [SM 728B]
